Data set [1] has as its target T1, Dolichol-phosphate-mannose synthase (Trypanosoma brucei brucei) (UniProt Q5QQ41).
T1 sequence (whole entry): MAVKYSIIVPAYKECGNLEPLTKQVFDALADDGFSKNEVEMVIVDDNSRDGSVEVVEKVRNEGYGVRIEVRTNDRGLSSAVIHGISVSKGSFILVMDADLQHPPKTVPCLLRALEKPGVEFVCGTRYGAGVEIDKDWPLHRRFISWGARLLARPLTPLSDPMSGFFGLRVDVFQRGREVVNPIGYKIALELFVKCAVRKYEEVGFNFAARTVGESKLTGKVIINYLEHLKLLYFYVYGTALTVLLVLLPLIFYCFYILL
The following applies: 1 mM.

The results in this text go back to ChEMBL document CHEMBL2203023, “Synopsis of some recent tactical application of bioisosteres in drug design” (J Med Chem, 2011).

For orientation: Km means the concentration of substrate that gives half-maximal velocity. As a reminder, the inhibition is the relative decrease from the control value, in per cent.

4-aminobutyrate aminotransferase, mitochondrial (Homo sapiens), P80404, sequence (P80404 whole entry): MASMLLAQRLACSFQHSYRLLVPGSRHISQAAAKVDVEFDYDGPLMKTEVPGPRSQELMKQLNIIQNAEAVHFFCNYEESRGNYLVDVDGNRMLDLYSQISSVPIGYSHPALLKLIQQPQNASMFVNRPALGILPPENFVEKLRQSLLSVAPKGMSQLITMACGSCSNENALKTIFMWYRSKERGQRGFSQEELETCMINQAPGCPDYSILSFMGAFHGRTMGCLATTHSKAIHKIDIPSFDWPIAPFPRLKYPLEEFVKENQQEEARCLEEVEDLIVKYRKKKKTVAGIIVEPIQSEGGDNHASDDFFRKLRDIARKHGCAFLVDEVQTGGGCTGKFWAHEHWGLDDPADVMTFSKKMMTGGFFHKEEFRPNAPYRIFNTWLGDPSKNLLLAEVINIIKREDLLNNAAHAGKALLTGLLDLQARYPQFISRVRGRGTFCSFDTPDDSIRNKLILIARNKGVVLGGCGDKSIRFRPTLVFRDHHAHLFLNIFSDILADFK

On to “4-aminobutyrate aminotransferase, mitochondrial (Homo sapiens), P80404”, for which, in the data set on NCCCC(=O)O, the Km turned out to be 2500 µM.

The molecule `Nc1nc2c(ncn2[C@@H]2O[C@H](CNc3c(NCc4ccccc4C(=O)O)c(=O)c3=O)[C@@H](O)[C@H]2O)c(=O)[nH]1` gave an inhibition in data set [1] of 64%.

`Nc1nc2c(ncn2[C@@H]2O[C@H](COP(=O)(O)OP(=O)(O)O)[C@@H](O)[C@H]2O)c(=O)[nH]1` displayed an inhibition in data set [1] of 8.5%.
